Data published in US4620871A (priority 1980, dated 1986).

Experiments:
Soybean [1] = assay: Total and protein nitrogen content of soybean (Example 39); format: in vivo
Description: The effects of 1,4-dihydroxyphthalazine and salts thereof exerted on the total nitrogen content and protein nitrogen content of soybean were examined as described in Example 27. The plants were sprayed with the compositions according to the invention at the beginning of the flowering of the apical cluster.

Soybean [2] = assay: Inhibition of the decomposition of chlorophyll in soybean leaf segments; conditions: 4 days dark
Experimental: (§1) The active agent to be tested was dissolved in distilled water to form a 200 ppm solution, and leaf segments of the plants under examination, weighing 200 mg, were floated on the surface of the solution for 4 days in the dark. Thereafter chlorphyll was extracted from the leaf segments with methanol.
(§2) To determine the starting state, chlorophyll was extracted with methanol from untreated leaf segments weighing 200 mg. In the control test the leaf segments, weighing 200 mg, were floated on the surface of distilled water for 4 days in the dark, and then chlorophyll was extracted from the leaf segments with methanol.
(§3) The chlorophyll concentration was determined by measuring the extinction of the extracts at 665 mμ.

Bean [3] = assay: Inhibition of the decomposition of chlorophyll in bean leaf segments; conditions: 4 days dark
Experimental: as §1, §2, §3

soybean leaf segments = assay: Stimulation of the protein level of soybean, glycine-14C incorporation (Example 18); conditions: 24 hours
Experimental: The active agent to be tested was dissolved in distilled water to form a 200 ppm solution, and soybean leaf segments, weighing 200 mg, were floated on the surface of the solution for 24 hours. In the control test leaf segments, weighing 200 mg, were floated on the surface of distilled water.
The leaf segments were washed with distilled water, and then treated for 3 hours with 20 ml of a solution containing labelled amino acid (glycine-^14 C; activity: 2 μCi). After this exposition period the leaf segments were washed with an aboundant amount of water, and the protein content of the leaf segments was isolated in a manner known per se. Stock solution was prepared from the isolated protein, and the specific radioactivity of the solution was determined by liquid scintillation.

hybrid maize = assay: Grain yield of maize (Example 29); format: in vivo
Experimental: The compositions according to the invention were applied as seed dressing agents onto the sowing-seeds of hybrid maize in a dosis of 0.5 kg/ha. The powdery compositions were wetted with water prior to application. The stand was sprayed three times during the cultivation period: first at the four-leaves development stage with a dosis of 3 kg/ha, then prior to tasseling with a dosis of 1 kg/ha, and finally prior to pollen ripening with a dosis of 2 kg/ha. The crop was evaluated as May shelled corn.

maize leaves = assay: Fixation of 14CO2 in maize leaves (Example 36); conditions: 18 hours; for Fixation of 14CO2: fresh weight, control 5.72; for Fixation of 14CO2, %: increase over control
Experimental: (§4) The biological activities of cytokinin-like factors can be well characterized by measuring the intensity of the photosynthetic carbon dioxide fixation and the incorporation of labelled amino acids into the TCA-insoluble protein fraction. The intensity of photosynthetic carbon dioxide fixation was determined on maize leaves, utilizing ^14 CO2, whereas the incorporation of amino acids was examined on bean leaves, utilizing […]-^14 C.

bean leaves = assay: Incorporation of Gly-2-14C in bean leaves (Example 36); conditions: 18 hours; for Incorporation of Gly-2-14C: fresh weight, control 3.52; for Incorporation of Gly-2-14C, %: increase over control
Experimental: as §4

Alfalfa [4] = assay: Alfalfa field tests 1979, Boly (Example 26); format: in vivo
Description: The effects of the compositions according to the invention exerted on the crop yield (green yield), crude protein content, protein nitrogen content and C/N ratio of alfalfa, observed under field conditions in the tests performed in 1979 at the Agricultural Combinate of Boly, Hungary, are listed in Table 17.

maize for silage = assay: Maize for silage field tests 1979, Boly (Example 28); format: in vivo
Description: The effects of the cytokinin-like regulators on the crop yield, crude protein content and real protein content of maize for silage, observed under field conditions in the tests performed in 1979 at the Agricultural Combinate of Boly, Hungary, are listed in Table 20.

Alfalfa [5] = assay: Inhibition of the decomposition of chlorophyll in alfalfa; conditions: for Chlorophyll content: 200 ppm, 100 mg green plant, control 0.78; for activation at 200 ppm: Medicago sativa, 96 h, read-out: Promotion
Experimental: as §2, with “Thereafter chlorphyll was extracted from the leaf segments with methanol. To” for “To”, “methanol. […] For alfalfa and maize the chlorphyll contents of 100 mg of green plant were examined.” for “methanol.”

Bean [6] = assay: Stimulation of photosynthesis, 14CO2 incorporation, bean leaf discs (Example 20); conditions: 2 hours; for activation at 200 ppm: foliar
Experimental: The specific radioactivities of the stock solutions were determined by liquid scintillation. In the control test untreated leaf discs were exposed to labelled carbon, dioxide, and the amount of carbon dioxide incorporated under such conditions was regarded as standard.

Maize = assay: Inhibition of the decomposition of chlorophyll in maize; conditions: for Chlorophyll content: 100 mg green plant, control 0.65; for activation at 200 ppm: Zea mays, 96 h, read-out: Promotion
Experimental: as §2, with “Thereafter chlorphyll was extracted from the leaf segments with methanol. To” for “To”, “methanol. […] For alfalfa and maize the chlorphyll contents of 100 mg of green plant were examined.” for “methanol.”

Oc1nnc(O)c2ccccc12 [1,4-Dihydroxyphthalazine]
Protein nitrogen content (Soybean [1]; control 1.9): 3.8 % of dry substance
Total nitrogen content (Soybean [1]; control 2.6): 4.6 % of dry substance
Protein nitrogen content, increase (Soybean [1]; in vivo): 100.0%
Total nitrogen content, increase (Soybean [1]; in vivo): 77.0%
Chlorophyll (Soybean [2]; 200 ppm, control 3.5): 4.2 mg
activation at 200 ppm (Soybean [2]; Glycine max, foliar, 96 h, read-out: Promotion): 20%
Chlorophyll (Bean [3]; 200 ppm, control 4.2): 5.8 mg
activation at 200 ppm (Bean [3]; foliar, 96 h, read-out: Promotion): 38%
Radioactivity (soybean leaf segments; 200 ppm, control 11.9): 16.1 mu Ci/100 mg
activation at 200 ppm (soybean leaf segments; Glycine max): 35.3%

CC(C)[n+]1c[nH]c2ccccc21.[Cl-] [N--Isopropyl-benzimidazolium chloride, N-isopropyl-benzimidazolium chloride]
Grain yield, increase (hybrid maize; in vivo): 57.1%
Grain yield (hybrid maize; seed dressing 0.5 kg/ha + sprays 3, 1, 2 kg/ha, control 132.8): 208.5 q/ha
Fixation of 14CO2 (maize leaves): 10.92 μCi/g
Fixation of 14CO2, % (maize leaves): 92%
Incorporation of Gly-2-14C (bean leaves): 4.85 μCi/g
Incorporation of Gly-2-14C, % (bean leaves): 35%
C/N ratio (Alfalfa [4]; control 5.31): 4.20
P2O5 content (Alfalfa [4]; control 8.3): 10.9 % of dry substance
Crude protein content (Alfalfa [4]; control 21.3): 25.8 % of dry substance
Green yield (Alfalfa [4]; control 120): 142 q/ha
C/N ratio, decrease (Alfalfa [4]; in vivo): 21.0%
Crude protein content, increase (Alfalfa [4]; in vivo): 21.5%
Green yield, increase (Alfalfa [4]; in vivo): 18.7%
P2O5 content, increase (Alfalfa [4]; in vivo): 31.7%
P2O5 content (maize for silage; control 7.5): 9.8 % of dry substance
Crude protein content (maize for silage; control 13.2): 17.1 % of dry substance
C/N ratio (maize for silage; control 31.4): 23.5
Green weight (maize for silage; control 310.2): 398.2 q/ha
C/N ratio, decrease (maize for silage; in vivo): 25.4%
Crude protein content, increase (maize for silage; in vivo): 29.7%
Green weight, increase (maize for silage; in vivo): 28.4%
P2O5 content, increase (maize for silage; in vivo): 30.8%

CCn1cnc2ccccc21 [N--ethyl-benzimidazolium bromide]
Chlorophyll content (Alfalfa [5]): 0.85 mg
activation at 200 ppm (Alfalfa [5]): 8.9%
activation at 200 ppm (Bean [6]): 184%
Fixation of 14CO2 (maize leaves): 6.72 μCi/g
Fixation of 14CO2, % (maize leaves): 18%
Incorporation of Gly-2-14C (bean leaves): 4.25 μCi/g
Incorporation of Gly-2-14C, % (bean leaves): 21%
Chlorophyll content (Maize; 200 ppm): 0.79 mg
activation at 200 ppm (Maize): 21.5%

Cn1cnc2ccccc21 [N--methyl-benzimidazolium bromide]
Chlorophyll content (Alfalfa [5]): 0.83 mg
activation at 200 ppm (Alfalfa [5]): 6.4%
activation at 200 ppm (Bean [6]): 125%
Fixation of 14CO2 (maize leaves): 8.12 μCi/g
Fixation of 14CO2, % (maize leaves): 42%
Incorporation of Gly-2-14C (bean leaves): 4.75 μCi/g
Incorporation of Gly-2-14C, % (bean leaves): 35%
Chlorophyll content (Maize; 200 ppm): 0.80 mg
activation at 200 ppm (Maize): 23%

N--bromoethyl-benzimidazolium bromide
Chlorophyll content (Alfalfa [5]): 0.64 mg
Stimulation (14CO2 incorporation) (Bean [6]; 200 ppm): 57%
Fixation of 14CO2 (maize leaves): 6.46 μCi/g
Fixation of 14CO2, % (maize leaves): 13%
Incorporation of Gly-2-14C (bean leaves): 4.36 μCi/g
Incorporation of Gly-2-14C, % (bean leaves): 24%
Promotion (Maize; 200 ppm): 9.2%
Chlorophyll content (Maize; 200 ppm): 0.71 mg
